Data on 51 molecules can be found in US9340530B2, “Preparation and use of bicyclic himbacine derivatives as PAR-1 receptor antagonists” (Merck, Sharp & Dohme Corp., priority 2012, dated 2016).

Chain of PAR1 (P25116 22-425): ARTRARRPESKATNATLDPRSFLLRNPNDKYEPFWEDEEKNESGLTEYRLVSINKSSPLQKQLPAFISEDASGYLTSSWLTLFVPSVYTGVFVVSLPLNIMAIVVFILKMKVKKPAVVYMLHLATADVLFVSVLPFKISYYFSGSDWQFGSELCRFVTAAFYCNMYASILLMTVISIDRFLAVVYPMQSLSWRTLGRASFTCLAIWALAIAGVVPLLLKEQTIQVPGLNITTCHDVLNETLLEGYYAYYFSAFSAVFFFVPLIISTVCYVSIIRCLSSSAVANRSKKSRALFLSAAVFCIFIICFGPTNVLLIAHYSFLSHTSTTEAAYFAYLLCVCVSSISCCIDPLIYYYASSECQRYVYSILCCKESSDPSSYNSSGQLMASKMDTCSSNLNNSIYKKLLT

The target in this assay is PAR1 (Homo sapiens (Human), UniProt P25116). Put plainly: Par-1 FLIPR assay (calcium, HEK 293 cells, PAR1 activating peptide). Conditions: PAR1 selective receptor-activating peptide at 80% activation. It counts as cell-based. How it is done:
HEK 293 Cells were grown in media containing DMEM, 10% FBS pen/strep/L-Glutamine and non-essential amino acids. The cells were plated in 384-well PDL coated plates at 12000 cells/well and incubated overnight at 37° C./5% CO2. Media was then removed from the cells, which were then incubated with buffer (Hank's containing HEPES and Chaps) containing FLIPR calcium-5 dye, made with buffer containing probenecid, for 60 minutes at 37° C. Varying concentrations of compound in a final concentration of 5% DMSO were then added to the cells and incubated at 25° C. for 30 minutes. […] The FLIPR reads at an excitation wavelength of 480 nm and an emission wavelength of 535 nm, and performs 60 scans over a 1-2 min reading time. The data were analyzed by taking the peak signal over a portion of the range of the 60 scans and dividing this signal by the minimum signal for that same range.
Consider `C[C@H]1OC(=O)C2CC(F)(F)[C@@H](C)[C@H](/C=C/c3ccc(-c4ccccc4OC(F)(F)F)cn3)C21` (stereo partly drawn) [Example 5], for which the IC50 was 4.7 nM.

On to `C[C@H]1OC(=O)[C@]2(NCC3CC3)CC(F)(F)[C@@H](C)[C@H](/C=C/c3ccc(-c4ccccc4C#N)cn3)[C@H]12` [Example 50], for which the IC50 came to 2.7 nM.

For `C[C@H]1OC(=O)[C@]2(C3(O)CNC3)CC(F)(F)[C@@H](C)[C@H](/C=C/c3ccc(-c4ccccc4C#N)cn3)[C@H]12` [Example 24], the IC50 turned out to be 40.7 nM.

Consider `C[C@H]1OC(=O)[C@]2(CN)CC(F)(F)[C@@H](C)[C@H](/C=C/c3ccc(-c4ccccc4C#N)cn3)[C@H]12` [Example 76], for which the IC50 stood at 2.3 nM.

As to `C[C@H]1OC(=O)[C@]2(NCc3cnccn3)CC(F)(F)[C@@H](C)[C@H](/C=C/c3ccc(-c4ccccc4C#N)cn3)[C@H]12` [Example 45], the IC50 amounted to 4.4 nM.

Regarding `CC(=O)N[C@@]12CC(F)(F)[C@@H](C)[C@H](/C=C/c3ccc(-c4ccccc4C#N)cn3)[C@@H]1[C@@H](C)OC2=O` [Example 53], the IC50 came to 26 nM.

Take `C[C@H]1OC(=O)[C@]2(Cc3ncon3)CC(F)(F)[C@@H](C)[C@H](/C=C/c3ccc(-c4ccccc4Cl)cn3)[C@H]12` [Example 26]: the IC50 is 1.2 nM.

Regarding `C[C@H]1OC(=O)[C@]2(NCc3ccccn3)CC(F)(F)[C@@H](C)[C@H](/C=C/c3ccc(-c4ccccc4C#N)cn3)[C@H]12` [Example 46], the IC50 was 3.1 nM.

With `C[C@H]1OC(=O)[C@]2(NC(=O)c3ccc(C#N)cc3)CC(F)(F)[C@@H](C)[C@H](/C=C/c3ccc(-c4ccccc4C#N)cn3)[C@H]12` [Example 64], the concentration for half-maximal inhibition (IC50) was determined as 2.9 nM.

On to `C[C@H]1OC(=O)[C@]2(CC#N)CC(F)(F)[C@@H](C)[C@H](/C=C/c3ccc(-c4ccccc4Cl)cn3)[C@H]12` [Example 25], for which the IC50 is 3.3 nM.

Consider `CC1[C@H](/C=C/c2ccc(-c3ccccc3C#N)cn2)C2[C@@H](C)OC(=O)[C@@]2(NC(=O)c2ccn(C)n2)CC1(F)F` (stereo partly drawn) [Example 67], for which the IC50 was 3.7 nM.

Take `C[C@H]1OC(=O)[C@]2(NCC(O)CCl)CC(F)(F)[C@@H](C)[C@H](/C=C/c3ccc(-c4ccccc4C#N)cn3)[C@H]12` (stereo partly drawn) [Example 52]: the IC50 was 4.3 nM.

In the case of `CC1[C@H](/C=C/c2ccc(-c3ccccc3C#N)cn2)C2[C@@H](C)OC(=O)[C@]2(NCc2cocn2)CC1(F)F` (stereo partly drawn) [Example 42], the IC50 amounted to 2.4 nM.

With `C[C@H]1OC(=O)[C@@H]2CC(F)(F)[C@@H](C)[C@H](/C=C/c3ccc(-c4ccccc4C#N)cn3)[C@H]12` [Example 1], the IC50 was determined as 1.6 nM.

Take `C[C@H]1OC(=O)[C@]2(NCc3cncnc3)CC(F)(F)[C@@H](C)[C@H](/C=C/c3ccc(-c4ccccc4C#N)cn3)[C@H]12` [Example 47]: the IC50 was determined as 5.7 nM.

Take `C[C@H]1OC(=O)[C@]2(NC(=O)c3ccccc3)CC(F)(F)[C@@H](C)[C@H](/C=C/c3ccc(-c4ccccc4C#N)cn3)[C@H]12` [Example 63]: the IC50 was determined as 2.3 nM.

`CC1[C@H](/C=C/c2ccc(-c3ccccc3C#N)cn2)C2[C@@H](C)OC(=O)[C@]2(NCc2ccncc2)CC1(F)F` (stereo partly drawn) [Example 40]: the IC50 was found to be 3.9 nM.

As to `C[C@H]1OC(=O)[C@]2(C(=O)NC3CCC3)CC(F)(F)[C@@H](C)[C@H](/C=C/c3ccc(-c4ccccc4C#N)cn3)[C@H]12` [Example 18], the IC50 turned out to be 3.3 nM.

For the molecule `CO[C@@]12CC(F)(F)[C@@H](C)[C@H](/C=C/c3ccc(-c4ccccc4C#N)cn3)[C@@H]1[C@@H](C)OC2=O` [Example 72], the IC50 was determined as 2.5 nM.

Turning to `C[C@H]1OC(=O)[C@]2(NC(=O)NC3CCC3)CC(F)(F)[C@@H](C)[C@H](/C=C/c3ccc(-c4ccccc4C#N)cn3)[C@H]12` [Example 54], the concentration for half-maximal inhibition (IC50) came to 7.1 nM.

Consider `C[C@H]1OC(=O)[C@]2(O)CC(F)(F)[C@@H](C)[C@H](/C=C/c3ccc(-c4ccccc4OC(F)(F)F)cn3)[C@H]12` [Example 9], for which the IC50 was found to be 4.5 nM.

On to `C[C@H]1OC(=O)[C@]2(NC(=O)C3CC3)CC(F)(F)[C@@H](C)[C@H](/C=C/c3ccc(-c4ccccc4C#N)cn3)[C@H]12` [Example 66], for which the IC50 turned out to be 3.5 nM.

With `C[C@H]1OC(=O)[C@]2(O)CC(F)(F)[C@@H](C)[C@H](/C=C/c3ccc(-c4ccccc4C#N)cn3)[C@H]12` [Example 8], the IC50 turned out to be 2 nM.

For the molecule `C[C@H]1OC(=O)[C@]2(NC3CCC3)CC(F)(F)[C@@H](C)[C@H](/C=C/c3ccc(-c4ccccc4C#N)cn3)[C@H]12` [Example 36], the IC50 stood at 4.1 nM.

Turning to `C[C@H]1OC(=O)[C@]2(NC(=O)c3ccc(Cl)nc3)CC(F)(F)[C@@H](C)[C@H](/C=C/c3ccc(-c4ccccc4C#N)cn3)[C@H]12` [Example 59], the IC50 was determined as 3 nM.

With `C[C@H]1OC(=O)[C@]2(NC(=O)c3cccc(F)c3)CC(F)(F)[C@@H](C)[C@H](/C=C/c3ccc(-c4ccccc4C#N)cn3)[C@H]12` [Example 58], the IC50 was found to be 3 nM.

With `Cc1oncc1C(=O)N[C@@]12CC(F)(F)[C@@H](C)[C@H](/C=C/c3ccc(-c4ccccc4C#N)cn3)[C@@H]1[C@@H](C)OC2=O` [Example 61], the IC50 came out at 33.3 nM.

Take `C[C@H]1OC(=O)[C@]2(N(C)C)CC(F)(F)[C@@H](C)[C@H](/C=C/c3ccc(-c4ccccc4C#N)cn3)[C@H]12` [Example 37]: the IC50 was determined as 5.3 nM.

For the molecule `C[C@H]1OC(=O)[C@]2(N)CC(F)(F)[C@@H](C)[C@H](/C=C/c3ccc(-c4ccccc4C#N)cn3)[C@H]12` [Example 7], the IC50 is 7.2 nM.

Consider `C[C@H]1OC(=O)[C@]2(CO)CC(F)(F)[C@@H](C)[C@H](/C=C/c3ccc(-c4ccccc4C#N)cn3)[C@H]12` [Example 15], for which the IC50 came to 2.7 nM.

In the case of `C[C@@H]1[C@H](/C=C/c2ccc(-c3ccccc3C#N)cn2)[C@H]2[C@@H](C)OC(=O)[C@]2(NC(=O)c2ccc(F)cc2)CC1(F)F` [Example 62], the IC50 turned out to be 1.7 nM.

As for `CC1[C@H](/C=C/c2ccc(-c3ccccc3C#N)cn2)C2[C@@H](C)OC(=O)[C@]2(C(O)c2cscn2)CC1(F)F` (stereo partly drawn) [Example 20a], the IC50 stood at 0.9 nM.

On to `C[C@H]1OC(=O)[C@]2(NC(=O)c3nccs3)CC(F)(F)[C@@H](C)[C@H](/C=C/c3ccc(-c4ccccc4C#N)cn3)[C@H]12` [Example 57], for which the IC50 came out at 2.8 nM.

In the case of `Cc1nnnn1[C@@]12CC(F)(F)[C@@H](C)[C@H](/C=C/c3ccc(-c4ccccc4C#N)cn3)[C@@H]1[C@@H](C)OC2=O` [Example 34], the IC50 came to 6.4 nM.

`CC1[C@H](/C=C/c2ccc(-c3ccccc3C#N)cn2)C2[C@@H](C)OC(=O)[C@]2(NCc2ncco2)CC1(F)F` (stereo partly drawn) [Example 41]: the IC50 amounted to 6.5 nM.

Turning to `C[C@H]1OC(=O)[C@]2(NCc3cncs3)CC(F)(F)[C@@H](C)[C@H](/C=C/c3ccc(-c4ccccc4C#N)cn3)[C@H]12` [Example 43], the IC50 amounted to 1.3 nM.

Regarding `C[C@H]1OC(=O)[C@]2(C(O)c3nccs3)CC(F)(F)[C@@H](C)[C@H](/C=C/c3ccc(-c4ccccc4C#N)cn3)[C@H]12` (stereo partly drawn) [Example 21b], the IC50 turned out to be 1.2 nM.

In the case of `Cc1cn([C@@]23CC(F)(F)[C@@H](C)[C@H](/C=C/c4ccc(-c5ccccc5C#N)cn4)[C@@H]2[C@@H](C)OC3=O)nn1` [Example 32], the IC50 amounted to 1.4 nM.

Regarding `Cc1cc(C(=O)N[C@@]23CC(F)(F)[C@@H](C)[C@H](/C=C/c4ccc(-c5ccccc5C#N)cn4)[C@@H]2[C@@H](C)OC3=O)no1` [Example 60], the half-inhibitory concentration (IC50) is 3.4 nM.

For the molecule `CC1[C@H](/C=C/c2ccc(-c3ccccc3C#N)cn2)C2[C@@H](C)OC(=O)[C@]2(C(O)c2nccs2)CC1(F)F` (stereo partly drawn) [Example 21a], the IC50 turned out to be 2.5 nM.

Regarding `C[C@H]1OC(=O)C2CC(F)(F)[C@@H](C)[C@H](/C=C/c3ccc(-c4ccccc4Cl)cn3)C21` (stereo partly drawn) [Example 4], the IC50 is 2.7 nM.

On to `C[C@H]1OC(=O)[C@]2(S(C)(=O)=O)CC(F)(F)[C@@H](C)[C@H](/C=C/c3ccc(-c4ccccc4C#N)cn3)[C@H]12` [Example 70], for which the IC50 was 15.6 nM.

On to `C[C@H]1OC(=O)[C@]2(C(=O)O)CC(F)(F)[C@@H](C)[C@H](/C=C/c3ccc(-c4cccc(F)c4)cn3)[C@H]12` [Example 12], for which the IC50 was found to be 10.9 nM.

As to `C[C@H]1OC(=O)[C@]2(C(O)c3ncco3)CC(F)(F)[C@@H](C)[C@H](/C=C/c3ccc(-c4ccccc4C#N)cn3)[C@H]12` (single isomer, unassigned) [Example 23a], the IC50 was found to be 3.1 nM.

As to `Cc1cccc(-c2ccc(/C=C/[C@@H]3[C@@H]4[C@@H](C)OC(=O)[C@]4(N)CC(F)(F)[C@H]3C)nc2)c1C#N` [Example 73], the IC50 was determined as 3.3 nM.

Regarding `C[C@H]1OC(=O)[C@]2(NCC(C)(C)C)CC(F)(F)[C@@H](C)[C@H](/C=C/c3ccc(-c4ccccc4C#N)cn3)[C@H]12` [Example 51], the IC50 was found to be 10.2 nM.

With `C[C@H]1OC(=O)[C@]2(NCc3nccn3C)CC(F)(F)[C@@H](C)[C@H](/C=C/c3ccc(-c4ccccc4C#N)cn3)[C@H]12` [Example 48], the IC50 is 3 nM.

Regarding `C[C@H]1OC(=O)[C@]2(C(O)c3cocn3)CC(F)(F)[C@@H](C)[C@H](/C=C/c3ccc(-c4ccccc4C#N)cn3)[C@H]12` (stereo partly drawn) [Example 22b], the IC50 came out at 2.2 nM.

For the molecule `C[C@H]1OC(=O)[C@]2(NC3COC3)CC(F)(F)[C@@H](C)[C@H](/C=C/c3ccc(-c4ccccc4C#N)cn3)[C@H]12` [Example 49], the IC50 worked out at 10.4 nM.

`C[C@H]1OC(=O)[C@]2(N)CC(F)(F)[C@@H](C)[C@H](/C=C/c3ccc(-c4ccccc4-c4nnn[nH]4)cn3)[C@H]12` [Example 74]: the IC50 stood at 872 nM.

In the case of `C[C@H]1OC(=O)[C@]2(NCc3cscn3)CC(F)(F)[C@@H](C)[C@H](/C=C/c3ccc(-c4ccccc4C#N)cn3)[C@H]12` [Example 44], the IC50 was found to be 1.6 nM.
